{"source": "patent US8895752B2", "about": "“Alkylsulfonyl-substituted thiazolide compounds” (priority 2007, dated 2014)", "key": {"[1]": {"assay": "Cytotoxicity by neutral red dye uptake in AVA5 cells", "format": "cell-based", "conditions": "human, AVA5 cells (HCV replicon, sub-genomic CON1), Genotype 1b replicon"}, "[2]": {"assay": "Cytotoxicity by neutral red dye uptake in Huh7 cells containing H/FL-Neo", "format": "cell-based", "conditions": "human; Genotype 1a replicon"}, "[3]": {"assay": "Cytotoxicity by neutral red dye uptake in 2.2.15 cells", "conditions": "human", "procedure": "(§1) HBV antiviral assays were conducted as previous described (Korba and Gerin, 1992).\n(§2) EC50, EC90 and CC50 values (±standard deviations [S.D.]) were calculated by linear regression analysis using data combined from all treated cultures (Korba and Gerin, 1992; Okuse et al., 2005). […] Selectivity index (S.I.) was calculated as CC50/EC90 for HBV assays and CC50/EC50 for HCV assays. EC90 values were used for calculation of the S.I. in HBV assays since at least a […] depression of HBV DNA levels is typically required to achieve statistical significance in this assay system (Korba and Gerin, 1992). For combination treatments, EC50, EC90, CC50 and S.I. are presented for the first compound listed. The molar ratio of the compounds in each combination is also indicated."}, "[4]": {"system": "HCV replicon, sub-genomic CON1, genotype 1b", "assay": "3-day HCV replicon assay in AVA5 cells (intracellular HCV RNA, blot hybridization)", "format": "cell-based, Hepatitis C Virus", "procedure": "(§3) Antiviral activity of test compounds was assessed in a 3-day assay using the stably-expressing HCV replicon cell line, AVA5 (sub-genomic CON1, genotype 1b) (Blight et al., 2000) maintained as sub-confluent cultures on 96-well plates as previously described (Okuse et al., 2005). Antiviral activity was determined by blot hybridization analysis of intracellular HCV RNA (normalized to the level of cellular B-actin RNA in each culture sample) and cytotoxicity was assessed by neutral red dye uptake after 3 days of treatment. Additional studies were performed using Huh7 cells containing another HCV replicon, H/FL-Neo, a genotype 1a full length construct (Blight et al., 2003). For studies involving human serum, standard culture medium (which contains 10% fetal bovine serum) and assay conditions were maintained.\nas §2"}, "[5]": {"assay": "Cytotoxicity in HCV replicon cells in the presence of human serum", "procedure": "as §3, §2\n(§4) To evaluate the effect of human serum on the anti-HCV potency and cytotoxicity of TIZ, human serum was added to the culture medium at various concentrations (Table 6). […] In the below tables, RM4863 is the same as compound 6 of Table 7."}, "[6]": {"system": "HBV", "assay": "HBV antiviral assay in confluent 2.2.15 cell cultures (HBV DNA, quantitative blot hybridization)", "format": "cell-based, Hepatitis B Virus", "quoted_text": "EC50, EC90 and CC50 values (±standard deviations [S.D.]) were calculated by linear regression analysis using data combined from all treated cultures (Korba and Gerin, 1992; Okuse et al., 2005). […] Selectivity index (S.I.) was calculated as CC50/EC90 for HBV assays and CC50/EC50 for HCV assays. EC90 values were used for calculation of the S.I. in HBV assays since at least a 3-fold depression of HBV DNA levels is typically required to achieve statistical significance in this assay system (Korba and Gerin, 1992)."}, "[7]": {"system": "HCV replication", "assay": "HCV replicon assay in the presence of human serum", "format": "cell-based", "conditions": "Hepatitis C virus", "procedure": "as §3, §2, §4"}, "[8]": {"conditions": "cited from earlier work"}, "[9]": {"system": "HCV replicon H/FL-Neo, genotype 1a full length", "assay": "HCV replicon assay in Huh7 cells containing H/FL-Neo", "format": "cell-based, Hepatitis C Virus", "procedure": "as §3, §2"}, "[10]": {"system": "cytochrome P450 enzymes", "conditions": "cited from earlier work"}, "[11]": {"system": "AVA5 cells", "assay": "Cytotoxicity by neutral red dye uptake in AVA5 cells", "format": "cell-based", "conditions": "Genotype 1b replicon, 3 days"}, "[12]": {"system": "Huh7 cells containing H/FL-Neo", "assay": "Cytotoxicity by neutral red dye uptake in Huh7 cells containing H/FL-Neo", "format": "cell-based", "conditions": "Genotype 1a replicon"}, "[13]": {"system": "2.2.15 cells", "assay": "Cytotoxicity by neutral red dye uptake in 2.2.15 cells", "conditions": "confluent 2.2.15 cultures, nine daily doses, neutral red uptake", "procedure": "as §1, §2"}, "[14]": {"conditions": "Hepatitis C virus, Huh-7, Genotype 1a replicon"}, "[15]": {"conditions": "Genotype 1b replicon, 3 days, first compound listed for combinations"}}, "note": "“And” between values parts separate entries of the source, which are not always exact repeats. Equal entries are not always repeated. Where two headings read alike, the source gives them in different places.", "data": [{"smiles": "O=C(Nc1ncc([N+](=O)[O-])s1)c1ccccc1O", "note": "[TIZ, tizoxanide]", "values": [{"measurement": "CC50 at 3 days", "setting": "[1]", "result": "15 ± 1.2", "unit": "µM"}, {"measurement": "CC50 at 3 days", "setting": "[2]", "result": "14 ± 0.2", "unit": "µM"}, {"measurement": "CC50 at 9 days", "setting": "[3]", "result": "> 100", "unit": "µM"}, {"measurement": "Selectivity Index", "setting": "[4]; Genotype 1b replicon, CC50/EC50", "result": 100}, {"measurement": "CC50 at 3 days", "setting": "[5]; CC50, human serum 0 %", "result": "28 ± 0.9", "unit": "µM"}, {"measurement": "CC50 at 3 days", "setting": "[5]; CC50, human serum 2.5 %", "result": "65 ± 1.4", "unit": "µM"}, {"measurement": "CC50 at 3 days", "setting": "[5]; CC50, human serum 5 %", "result": "97 ± 3.9", "unit": "µM"}, {"measurement": "CC50 at 3 days", "setting": "[5]; CC50, human serum 10 %", "result": "> 100", "unit": "µM"}, {"measurement": "CC50 at 3 days", "setting": "[5]; CC50, human serum 15 %", "result": "> 100", "unit": "µM"}, {"measurement": "CC50 at 3 days", "setting": "[5]; CC50, human serum 20 %", "result": "> 100", "unit": "µM"}, {"measurement": "CC50 at 3 days", "setting": "[5]; CC50, human serum 30 %", "result": "> 100", "unit": "µM"}, {"measurement": "Selectivity Index Virion", "setting": "[6]; CC50/EC90, extracellular virion DNA", "result": ">172"}, {"measurement": "Selectivity Index RI", "setting": "[6]; CC50/EC90, intracellular HBV RI", "result": ">83"}, {"measurement": "EC50", "setting": "[6]; Hepatitis B virus, read-out: Intracellular HBV RI EC50", "result": "0.46 ± 0.05", "unit": "µM"}, {"measurement": "EC50", "setting": "[6]; Hepatitis B virus, 2.2.15 cells, nine daily doses, read-out: Extracellular virion DNA EC50", "result": "0.15 ± 0.02", "unit": "µM"}, {"measurement": "EC90", "setting": "[6]; Hepatitis B virus, 2.2.15 cells, nine daily doses, read-out: Extracellular virion DNA EC90", "result": "0.58 ± 0.06", "unit": "µM"}, {"measurement": "EC90", "setting": "[6]; Hepatitis B virus, 2.2.15 cells, nine daily doses, read-out: Intracellular HBV RI EC90", "result": "1.2 ± 0.2", "unit": "µM"}, {"measurement": "EC50", "setting": "[7]; human serum 0 %", "result": "0.25 ± 0.01", "unit": "µM"}, {"measurement": "EC90", "setting": "[7]; human serum 0 %", "result": "0.98 ± 0.04", "unit": "µM"}, {"measurement": "EC50", "setting": "[7]; human serum 2.5 %", "result": "0.48 ± 0.02", "unit": "µM"}, {"measurement": "EC90", "setting": "[7]; human serum 2.5 %", "result": "1.1 ± 0.1", "unit": "µM"}, {"measurement": "EC50", "setting": "[7]; human serum 5 %", "result": "0.64 ± 0.05", "unit": "µM"}, {"measurement": "EC90", "setting": "[7]; human serum 5 %", "result": "2.3 ± 0.1", "unit": "µM"}, {"measurement": "EC50", "setting": "[7]; human serum 10 %", "result": "1.1 ± 0.1", "unit": "µM"}, {"measurement": "EC90", "setting": "[7]; human serum 10 %", "result": "3 ± 0.2", "unit": "µM"}, {"measurement": "EC50", "setting": "[7]; human serum 15 %", "result": "2.7 ± 0.3", "unit": "µM"}, {"measurement": "EC90", "setting": "[7]; human serum 15 %", "result": "15 ± 2", "unit": "µM"}, {"measurement": "EC50", "setting": "[7]; human serum 20 %", "result": "9.4 ± 0.8", "unit": "µM"}, {"measurement": "EC90", "setting": "[7]; human serum 20 %", "result": "27 ± 2.2", "unit": "µM"}, {"measurement": "EC50", "setting": "[7]; human serum 30 %", "result": "9.3 ± 0.9", "unit": "µM"}, {"measurement": "EC90", "setting": "[7]; human serum 30 %", "result": "32 ± 3", "unit": "µM"}, {"measurement": "elimination half-life from plasma", "setting": "[8]; in vivo", "result": "approximately 1.5 hours"}, {"measurement": "Maximum serum concentrations", "setting": "[8]; one 500 mg NTZ tablet (Alinia) orally with food", "result": "approximately 10 μg/mL and ~37 μM"}, {"measurement": "part of an oral dose that passes through the intestinal tract and is excreted in feces as TIZ", "setting": "[8]; oral dose of NTZ", "result": "Approximately two-thirds"}, {"measurement": "antiviral activity against full length genotype 1a replicon compared with AVA5 cells (genotype 1b)", "setting": "[9]", "result": "equivalent"}, {"measurement": "Selectivity Index", "setting": "[9]; Genotype 1a replicon, CC50/EC50", "result": 56}, {"measurement": "EC50", "setting": "[9]; [14]", "result": "0.25 ± 0.03", "unit": "µM"}, {"measurement": "EC90", "setting": "[9]; [14]", "result": "1 ± 0.1", "unit": "µM"}, {"measurement": "inhibition of cytochrome P450 enzymes", "setting": "[10]", "result": "does not inhibit"}]}, {"smiles": "O=C(Nc1ncc(Br)s1)c1ccccc1O", "note": "[RM4832]", "values": [{"measurement": "CC50", "setting": "[11]", "result": "98 ± 3.2", "unit": "µM"}, {"measurement": "CC50", "setting": "[12]", "result": "88 ± 2.1", "unit": "µM"}, {"measurement": "CC50", "setting": "[13]", "result": "> 100", "unit": "µM"}, {"measurement": "EC50", "setting": "[4]; [15]", "result": "4.9 ± 0.5", "unit": "µM"}, {"measurement": "EC90", "setting": "[4]; [15]", "result": "20 ± 1.9", "unit": "µM"}, {"measurement": "activity against HCV", "setting": "[4]; among the other thiazolides", "result": "exhibited activity"}, {"measurement": "EC50", "setting": "[6]; 2.2.15 cells, nine daily doses, read-out: Extracellular virion DNA EC50", "result": "1.2 ± 0.1", "unit": "µM"}, {"measurement": "EC90", "setting": "[6]; 2.2.15 cells, nine daily doses, read-out: Extracellular virion DNA EC90", "result": "4 ± 0.3", "unit": "µM"}, {"measurement": "EC50", "setting": "[6]; 2.2.15 cells, nine daily doses, read-out: Intracellular HBV RI EC50", "result": "2.9 ± 0.3", "unit": "µM"}, {"measurement": "EC90", "setting": "[6]; 2.2.15 cells, nine daily doses, read-out: Intracellular HBV RI EC90", "result": "8.7 ± 1", "unit": "µM"}, {"measurement": "antiviral activity against full length genotype 1a replicon compared with AVA5 cells (genotype 1b)", "setting": "[9]", "result": "equivalent"}, {"measurement": "EC50", "setting": "[9]; Genotype 1a replicon", "result": "2.8 ± 0.3", "unit": "µM"}, {"measurement": "EC90", "setting": "[9]; Genotype 1a replicon", "result": "9.4 ± 1.1", "unit": "µM"}]}]}
